Read-outs that look alike come from different tables or passages of the source.
What was measured:
[1] = Initial activity screening with pooled human liver microsomes; settings: 100 µM substrate, 30 min, 37 °C, 2 µg/µL protein, LC–ITMS, mean n = 2
[2] = biological target: T1, hCES1b (Homo sapiens, UniProt P23141); experiment: Enzyme kinetic studies of ester hydrolysis with hCES1b; settings: for Vmax (relative), ester hydrolysis by hCES1b: peak area ratio metabolite/internal standard
T1 sequence (P23141 18-567): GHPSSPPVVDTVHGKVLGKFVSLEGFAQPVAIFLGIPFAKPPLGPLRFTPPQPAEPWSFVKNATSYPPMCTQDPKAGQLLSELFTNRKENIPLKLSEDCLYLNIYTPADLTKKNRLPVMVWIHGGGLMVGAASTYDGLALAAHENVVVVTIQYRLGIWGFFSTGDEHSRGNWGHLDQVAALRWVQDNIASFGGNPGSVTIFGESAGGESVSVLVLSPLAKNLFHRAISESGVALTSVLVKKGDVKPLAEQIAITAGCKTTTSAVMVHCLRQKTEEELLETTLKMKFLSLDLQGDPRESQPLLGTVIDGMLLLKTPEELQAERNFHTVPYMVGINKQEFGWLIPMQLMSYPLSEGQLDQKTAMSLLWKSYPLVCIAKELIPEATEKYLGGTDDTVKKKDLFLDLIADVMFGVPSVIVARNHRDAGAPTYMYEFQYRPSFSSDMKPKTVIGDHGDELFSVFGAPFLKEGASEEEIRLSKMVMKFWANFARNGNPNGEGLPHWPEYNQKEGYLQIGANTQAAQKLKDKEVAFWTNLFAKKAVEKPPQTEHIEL

[3] = biological target: T2, hCES1c (Homo sapiens, UniProt P23141); parameters: purchased Corning (Amsterdam, The Netherlands); host or cells: baculovirus transfected insect cells; method as in Meyer et al. [2015]; settings: identical incubation conditions and analyzing methods; ref Meyer et al. [2015]; read-out: Km, hCES1c, literature value; cited from earlier work
T2 sequence (P23141 18-566 isoform P23141-3 limits assumed): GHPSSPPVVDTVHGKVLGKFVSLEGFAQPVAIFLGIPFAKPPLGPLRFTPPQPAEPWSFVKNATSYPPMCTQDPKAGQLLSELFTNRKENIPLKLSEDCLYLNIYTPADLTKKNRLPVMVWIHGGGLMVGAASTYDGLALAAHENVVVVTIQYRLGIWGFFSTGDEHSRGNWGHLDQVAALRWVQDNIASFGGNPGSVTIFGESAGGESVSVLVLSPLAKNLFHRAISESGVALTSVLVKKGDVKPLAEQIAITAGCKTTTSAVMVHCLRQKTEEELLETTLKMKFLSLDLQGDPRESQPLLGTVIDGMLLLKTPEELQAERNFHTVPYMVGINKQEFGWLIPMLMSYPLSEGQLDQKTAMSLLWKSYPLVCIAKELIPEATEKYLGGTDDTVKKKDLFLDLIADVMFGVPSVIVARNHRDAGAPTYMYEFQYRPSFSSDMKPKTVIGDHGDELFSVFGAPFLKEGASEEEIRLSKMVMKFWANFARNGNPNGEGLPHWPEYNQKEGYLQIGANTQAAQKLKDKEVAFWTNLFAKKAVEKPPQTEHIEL

[4] = Initial activity screening with pooled human liver S9 fraction; settings: 100 µM substrate, 30 min, 37 °C, 2 µg/µL protein, LC–ITMS, mean n = 2
[5] = biological target: T3, hCES2 (Homo sapiens, UniProt O00748); parameters: purchased Corning (Amsterdam, The Netherlands); host or cells: baculovirus transfected insect cells; method as in Meyer et al. [2015]; settings: identical incubation conditions and analyzing methods; ref Meyer et al. [2015]; read-out: Km, hCES2, literature value; cited from earlier work
T3 sequence (O00748 27-559): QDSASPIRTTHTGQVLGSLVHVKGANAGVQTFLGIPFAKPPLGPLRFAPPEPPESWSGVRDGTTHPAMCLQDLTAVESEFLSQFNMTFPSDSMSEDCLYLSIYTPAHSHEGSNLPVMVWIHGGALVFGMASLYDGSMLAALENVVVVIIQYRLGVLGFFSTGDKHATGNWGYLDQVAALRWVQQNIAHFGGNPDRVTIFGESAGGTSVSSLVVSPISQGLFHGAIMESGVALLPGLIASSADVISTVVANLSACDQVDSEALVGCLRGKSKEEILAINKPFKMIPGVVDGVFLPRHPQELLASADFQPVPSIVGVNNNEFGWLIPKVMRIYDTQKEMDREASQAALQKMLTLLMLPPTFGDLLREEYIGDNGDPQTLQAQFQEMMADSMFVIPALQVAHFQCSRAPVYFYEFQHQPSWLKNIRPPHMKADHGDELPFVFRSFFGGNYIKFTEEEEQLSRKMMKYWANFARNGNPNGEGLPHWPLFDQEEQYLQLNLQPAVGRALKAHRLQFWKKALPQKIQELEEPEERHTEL

[6] = biological target: T1, hCES1b; experiment: Initial activity screening with recombinant hCES1b; settings: 100 µM substrate, 30 min, 37 °C, 0.2 µg/µL protein, LC–ITMS, mean n = 2
[7] = biological target: T1, hCES1b; parameters: purchased Corning (Amsterdam, The Netherlands); host or cells: baculovirus transfected insect cells; method as in Meyer et al. [2015]; settings: identical incubation conditions and analyzing methods; ref Meyer et al. [2015]; read-out: Km, hCES1b, literature value; cited from earlier work
[8] = biological target: T3, hCES2; experiment: Enzyme kinetic studies of ester hydrolysis with hCES2; settings: for Vmax (relative), ester hydrolysis by hCES2: peak area ratio metabolite/internal standard
[9] = biological target: T2, hCES1c; experiment: Initial activity screening with recombinant hCES1c; settings: 100 µM substrate, 30 min, 37 °C, 0.2 µg/µL protein, LC–ITMS, mean n = 2
[10] = biological target: T2, hCES1c; experiment: Enzyme kinetic studies of ester hydrolysis with hCES1c; settings: for Vmax (relative), ester hydrolysis by hCES1c: peak area ratio metabolite/internal standard
[11] = biological target: T3, hCES2; experiment: Initial activity screening with recombinant hCES2; settings: 100 µM substrate, 30 min, 37 °C, 0.2 µg/µL protein, LC–ITMS, mean n = 2

## COc1ccc2c3c1O[C@H]1C(OC(C)=O)=CC[C@H]4[C@@H](C2)N(C)CC[C@]314 [Thebacon, reference compound]
[1]
  Relative amount of hydrolysis metabolite formed, pHLM: about 80%
[2]; Clint = Vmax/Km
  Clint (relative in vitro intrinsic clearance), hCES1b: 0.60 AU/min/mg/µM
[2]; read-out: Corrected Km, hCES1b, current Km adjusted by 2.4-fold enzyme load activity factor
  Km: 273 µM
[2]; read-out: Km, ester hydrolysis by hCES1b, ± S.D., Michaelis–Menten fit, conditions of Table 1
  Km: 655 ± 210 µM
[2]; ± S.D.
  Vmax (relative), ester hydrolysis by hCES1b: 394 ± 40 AU/min/mg
[2]; ± S.D., listed as thebacon
  Vmax (relative), ester hydrolysis by hCES1b: 394 AU/min/mg
[3]
  Km: 264 µM
[4]
  Relative amount of hydrolysis metabolite formed, pHLS9: about 80%
[5]
  Km: 166 µM
[6]
  Relative amount of hydrolysis metabolite formed, hCES1b: 47%
[7]
  Km: 272 µM
[8]; Clint = Vmax/Km
  Clint (relative in vitro intrinsic clearance), hCES2: 0.89 AU/min/mg/µM
[8]; read-out: Corrected Km, hCES2, current Km adjusted by 2.2-fold enzyme load activity factor
  Km: 247 µM
[8]; read-out: Km, ester hydrolysis by hCES2, ± S.D., Michaelis–Menten fit, conditions of Table 1
  Km: 543 ± 87 µM
[8]; ± S.D.
  Vmax (relative), ester hydrolysis by hCES2: 482 ± 31 AU/min/mg
[8]; ± S.D., listed as thebacon
  Vmax (relative), ester hydrolysis by hCES2: 482 AU/min/mg
[9]
  Relative amount of hydrolysis metabolite formed, hCES1c: 10%
[10]; Clint = Vmax/Km
  Clint (relative in vitro intrinsic clearance), hCES1c: 0.54 AU/min/mg/µM
[10]; read-out: Corrected Km, hCES1c, current Km adjusted by 5.3-fold enzyme load activity factor
  Km: 289 µM
[10]; read-out: Km, ester hydrolysis by hCES1c, ± S.D., Michaelis–Menten fit, conditions of Table 1
  Km: 1530 ± 470 µM
[10]; ± S.D.
  Vmax (relative), ester hydrolysis by hCES1c: 831 ± 140 AU/min/mg
[10]; ± S.D., listed as thebacon
  Vmax (relative), ester hydrolysis by hCES1c: 831 AU/min/mg
[11]
  Relative amount of hydrolysis metabolite formed, hCES2: 19%

Reference: PMC9352624, “Going deeper into the toxicokinetics of synthetic cannabinoids: in vitro contribution of human carboxylesterases” (Archives of Toxicology, 2022)
